# Test results as given in patent publication US4902720A (priority 1988, dated 1990).
# Key:
# HSV-1 and HSV-2 = format: cell-based; details: summary
# [1] = test system: Flow 1000 cells (foreskin cells); details: 25 mg/ml, 48 hours, 37° C.
# Protocol: (§1) Healthy confluent monolayer cell cultures were overlaid with 1 ml of the drug and incubated for 48 hours at 37° C. and then stained. Cell cultures with maintenance media were used as controls.
# RK-13 cells = details: 25 mg/ml, 48 hours, 37° C.
# Protocol: as §1
# Vero cells = details: 25 mg/ml, 48 hours, 37° C.
# Protocol: as §1
# HSV-2 (333 strain) = test: Plaque inhibition by HMB, HSV-2 333 strain in Vero cells (third series, Experiments 1M-1P); format: cell-based
# Protocol: In this experiment, 25 mg/ml HMB was tested on Vero cells infected with HSV-2. The virus control cultures, without HMB, had 705 plaque.
# The number of plaque on the virus control was about 10 to 12 plaque.
# In this experiment, 25 mg/ml, 20 mg/ml, and 15 mg/ml of HMB concentrations were tested on Vero cells infected with HSV-2. […] The experimental flasks had as many, or more, plaque as the control, with an average of 154 plaque for the control and 169 plaque for the HMB-treated flasks.
# HMB was further tested at a concentration of 20 mg/ml of reinfected Vero cells.
smiles,measurement,setting,value
"C[N+](C)(C)CCCCCC[N+](C)(C)C [HMB, hexamethonium bromide]",in vitro replication of HSV-1 and HSV-2,HSV-1 and HSV-2,inhibit the in vitro replication of HSV-1 and HSV-2
same,toxicity,[1],no toxicity
same,toxicity,RK-13 cells,slight toxicity
same,toxicity,Vero cells,no toxicity
same,appearance of cell layer,"HSV-2 (333 strain); Exp. 1M, 25 mg/ml HMB",thin cell layer
same,number of plaque,"HSV-2 (333 strain); Exp. 1M, 25 mg/ml HMB, control 705",142 plaque
same,inhibition of plaque,"HSV-2 (333 strain); Exp. 1N, 20 mg/ml HMB, control about 10 to 12 plaque",complete inhibition of plaque
same,effect on plaque,"HSV-2 (333 strain); Exp. 1O, 15 mg/ml HMB",did not have any effect
same,average number of plaque,"HSV-2 (333 strain); Exp. 1O, 15 mg/ml HMB, control 154",169 plaque
same,number of plaque,"HSV-2 (333 strain); Exp. 1O, 20 mg/ml HMB",no plaque
same,toxicity to the monolayer,"HSV-2 (333 strain); Exp. 1O, 25 mg/ml HMB",toxic to the monolayer
same,number of plaque,"HSV-2 (333 strain); Exp. 1O, 25 mg/ml HMB, most likely due to toxicity",no plaque
same,inhibition at 25000 µg/mL,"HSV-2 (333 strain); Human alphaherpesvirus 2, Vero, Exp. 1M, 25 mg/ml HMB",80%
same,inhibition at 20000 µg/mL,"HSV-2 (333 strain); Human alphaherpesvirus 2, Vero, Exp. 1P, 20 mg/ml HMB",91%
